6 molecules from article PMC6199744, “Development of Chemical Proteomics for the Folateome and Analysis of the Kinetoplastid Folateome” (ACS Infectious Diseases, 2018) can be followed below.

Holding throughout (assay type): binding
Assay [1] addresses T1, HeLa cell extract proteins (Homo sapiens, UniProt Q9H583).
T1 construct: endogenous in cells; host or cells: HeLa cell extract

Assay [2] concerns the target T2, HeLa cell extract proteins (Homo sapiens, UniProt Q9P035).
T2 construct: endogenous in cells; host or cells: HeLa cell extract
T2 sequence (Q9P035 1-362): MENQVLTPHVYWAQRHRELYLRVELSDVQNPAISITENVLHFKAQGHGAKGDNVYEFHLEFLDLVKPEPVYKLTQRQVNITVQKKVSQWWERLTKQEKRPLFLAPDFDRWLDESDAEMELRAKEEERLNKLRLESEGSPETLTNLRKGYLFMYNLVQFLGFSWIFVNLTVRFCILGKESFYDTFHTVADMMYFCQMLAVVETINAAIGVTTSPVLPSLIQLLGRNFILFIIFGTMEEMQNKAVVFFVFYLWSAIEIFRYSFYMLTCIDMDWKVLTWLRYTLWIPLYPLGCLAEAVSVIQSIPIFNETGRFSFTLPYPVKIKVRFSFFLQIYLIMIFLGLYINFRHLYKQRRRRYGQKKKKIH

The target of assay [3] is T3, HeLa cell extract proteins (Homo sapiens, UniProt P51648).
T3 construct: endogenous in cells; host or cells: HeLa cell extract
T3 sequence (P51648 whole entry): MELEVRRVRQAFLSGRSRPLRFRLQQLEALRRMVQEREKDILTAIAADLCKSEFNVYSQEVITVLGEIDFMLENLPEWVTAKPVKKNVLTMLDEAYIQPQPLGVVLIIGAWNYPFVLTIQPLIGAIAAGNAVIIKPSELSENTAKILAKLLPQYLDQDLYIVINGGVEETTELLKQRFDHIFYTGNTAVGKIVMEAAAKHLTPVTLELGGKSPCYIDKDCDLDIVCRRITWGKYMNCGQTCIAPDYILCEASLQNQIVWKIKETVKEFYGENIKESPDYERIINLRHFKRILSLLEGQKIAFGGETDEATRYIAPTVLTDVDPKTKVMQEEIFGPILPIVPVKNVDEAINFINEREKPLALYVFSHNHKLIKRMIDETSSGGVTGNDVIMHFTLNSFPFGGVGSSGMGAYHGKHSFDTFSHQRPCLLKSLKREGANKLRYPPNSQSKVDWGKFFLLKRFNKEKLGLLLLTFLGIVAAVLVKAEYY

The target of assay [4] is T4, HeLa cell extract proteins (Homo sapiens, UniProt P02786).
T4 construct: endogenous in cells; host or cells: HeLa cell extract

Assay [5] deals with T5, HeLa cell extract proteins (Homo sapiens, UniProt P10809).
T5 construct: endogenous in cells; host or cells: HeLa cell extract
T5 sequence (P10809 27-573): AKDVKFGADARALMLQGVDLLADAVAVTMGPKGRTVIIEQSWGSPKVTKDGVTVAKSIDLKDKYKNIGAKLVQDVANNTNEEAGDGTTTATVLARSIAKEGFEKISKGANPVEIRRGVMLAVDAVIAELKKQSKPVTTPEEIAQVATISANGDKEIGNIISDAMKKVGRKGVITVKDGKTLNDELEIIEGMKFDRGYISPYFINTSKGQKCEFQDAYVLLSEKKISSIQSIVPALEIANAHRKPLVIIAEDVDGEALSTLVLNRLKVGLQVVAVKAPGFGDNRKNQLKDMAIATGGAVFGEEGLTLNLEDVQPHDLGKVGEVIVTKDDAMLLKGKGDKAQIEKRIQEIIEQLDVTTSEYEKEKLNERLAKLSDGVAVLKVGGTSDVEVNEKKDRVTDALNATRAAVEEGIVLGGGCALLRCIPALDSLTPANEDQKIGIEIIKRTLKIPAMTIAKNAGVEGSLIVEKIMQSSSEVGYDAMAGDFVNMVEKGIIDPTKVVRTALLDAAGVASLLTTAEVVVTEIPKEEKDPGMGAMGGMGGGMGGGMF

The target in assay [6] is T6, HeLa cell extract proteins (Homo sapiens, UniProt Q01628).
T6 construct: endogenous in cells; host or cells: HeLa cell extract
T6 sequence (Q01628 whole entry): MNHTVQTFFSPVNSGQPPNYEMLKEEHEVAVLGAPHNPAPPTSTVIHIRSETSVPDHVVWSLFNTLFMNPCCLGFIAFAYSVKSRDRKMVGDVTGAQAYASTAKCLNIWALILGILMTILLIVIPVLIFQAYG

Assay [7] addresses T7, HeLa cell extract proteins (Homo sapiens, UniProt P61769).
T7 construct: endogenous in cells; host or cells: HeLa cell extract

The target of assay [8] is T8, HeLa cell extract proteins (Homo sapiens, UniProt P31930).
T8 construct: endogenous in cells; host or cells: HeLa cell extract
T8 sequence (P31930 35-480): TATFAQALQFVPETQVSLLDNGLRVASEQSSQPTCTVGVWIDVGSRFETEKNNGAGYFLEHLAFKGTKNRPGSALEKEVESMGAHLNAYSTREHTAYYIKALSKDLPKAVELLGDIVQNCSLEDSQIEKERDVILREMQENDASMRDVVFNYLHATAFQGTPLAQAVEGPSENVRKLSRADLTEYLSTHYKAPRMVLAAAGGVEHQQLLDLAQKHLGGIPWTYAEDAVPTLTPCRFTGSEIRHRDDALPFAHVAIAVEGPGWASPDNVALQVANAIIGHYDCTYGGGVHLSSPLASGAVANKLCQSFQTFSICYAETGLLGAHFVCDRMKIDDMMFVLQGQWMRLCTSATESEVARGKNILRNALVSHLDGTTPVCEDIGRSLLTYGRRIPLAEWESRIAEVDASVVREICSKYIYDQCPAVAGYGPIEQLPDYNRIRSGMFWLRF

The target in assay [9] is T9, HeLa cell extract proteins (Homo sapiens, UniProt P26038).
T9 construct: endogenous in cells; host or cells: HeLa cell extract
T9 sequence (P26038 whole entry): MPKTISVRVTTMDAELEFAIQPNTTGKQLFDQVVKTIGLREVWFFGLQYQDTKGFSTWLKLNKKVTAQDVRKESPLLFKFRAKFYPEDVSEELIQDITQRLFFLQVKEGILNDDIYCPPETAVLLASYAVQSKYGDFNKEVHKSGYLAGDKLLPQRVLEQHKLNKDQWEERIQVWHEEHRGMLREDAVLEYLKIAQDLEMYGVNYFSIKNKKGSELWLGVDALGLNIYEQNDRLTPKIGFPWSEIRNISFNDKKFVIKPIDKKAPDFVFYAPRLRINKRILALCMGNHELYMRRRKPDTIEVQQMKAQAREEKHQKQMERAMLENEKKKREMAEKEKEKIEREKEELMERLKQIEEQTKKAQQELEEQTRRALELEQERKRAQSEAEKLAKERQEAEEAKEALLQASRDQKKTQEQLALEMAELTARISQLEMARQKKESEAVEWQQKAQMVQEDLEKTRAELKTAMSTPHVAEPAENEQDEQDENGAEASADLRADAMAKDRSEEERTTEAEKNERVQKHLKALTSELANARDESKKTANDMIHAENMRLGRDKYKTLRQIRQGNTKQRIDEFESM

Assay [10] addresses T10, HeLa cell extract proteins (Homo sapiens, UniProt O75874).
T10 construct: endogenous in cells; host or cells: HeLa cell extract

In assay [11] the target is T11, HeLa cell extract proteins (Homo sapiens, UniProt P13674).
T11 construct: endogenous in cells; host or cells: HeLa cell extract
T11 sequence (P13674 18-534): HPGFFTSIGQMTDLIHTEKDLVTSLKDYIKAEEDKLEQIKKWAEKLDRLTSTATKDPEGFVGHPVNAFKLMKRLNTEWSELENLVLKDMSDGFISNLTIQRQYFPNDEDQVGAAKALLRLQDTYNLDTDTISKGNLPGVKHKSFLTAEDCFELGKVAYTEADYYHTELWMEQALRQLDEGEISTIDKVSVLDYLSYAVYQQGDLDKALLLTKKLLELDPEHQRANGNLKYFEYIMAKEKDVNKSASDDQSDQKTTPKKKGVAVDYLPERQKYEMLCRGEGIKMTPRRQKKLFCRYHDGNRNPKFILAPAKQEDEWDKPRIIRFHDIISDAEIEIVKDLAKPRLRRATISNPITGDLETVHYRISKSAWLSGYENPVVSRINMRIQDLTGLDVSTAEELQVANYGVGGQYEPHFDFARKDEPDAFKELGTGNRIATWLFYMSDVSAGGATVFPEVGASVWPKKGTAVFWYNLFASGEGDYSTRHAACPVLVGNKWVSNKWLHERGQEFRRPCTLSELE

Assay [12] addresses T12, HeLa cell extract proteins (Homo sapiens, UniProt P29692).
T12 construct: endogenous in cells; host or cells: HeLa cell extract
T12 sequence (P29692 1-281): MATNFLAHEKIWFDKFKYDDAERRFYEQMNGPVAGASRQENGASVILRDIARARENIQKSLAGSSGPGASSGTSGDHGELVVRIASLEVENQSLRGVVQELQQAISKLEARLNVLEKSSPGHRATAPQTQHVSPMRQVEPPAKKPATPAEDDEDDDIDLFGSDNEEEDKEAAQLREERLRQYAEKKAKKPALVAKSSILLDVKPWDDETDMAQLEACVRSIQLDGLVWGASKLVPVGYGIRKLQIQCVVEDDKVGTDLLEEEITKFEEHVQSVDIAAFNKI

In assay [13] the target is T13, HeLa cell extract proteins (Homo sapiens, UniProt P53611).
T13 construct: endogenous in cells; host or cells: HeLa cell extract
T13 sequence (P53611 1-331): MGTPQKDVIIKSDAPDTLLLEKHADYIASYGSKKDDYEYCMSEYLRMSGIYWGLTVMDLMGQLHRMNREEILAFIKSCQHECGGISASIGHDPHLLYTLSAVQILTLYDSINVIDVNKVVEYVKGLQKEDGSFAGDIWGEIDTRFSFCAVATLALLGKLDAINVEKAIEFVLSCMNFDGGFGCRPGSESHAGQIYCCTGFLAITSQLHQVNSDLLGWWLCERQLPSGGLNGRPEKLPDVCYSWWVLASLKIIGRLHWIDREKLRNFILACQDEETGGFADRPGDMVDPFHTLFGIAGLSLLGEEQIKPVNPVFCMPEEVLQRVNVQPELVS

In assay [14] the target is T14, HeLa cell extract proteins (Homo sapiens, UniProt P42345).
T14 construct: endogenous in cells; host or cells: HeLa cell extract

The target in assay [15] is T15, HeLa cell extract proteins (Homo sapiens, UniProt Q9NQR4).
T15 construct: endogenous in cells; host or cells: HeLa cell extract
T15 sequence (Q9NQR4 1-276): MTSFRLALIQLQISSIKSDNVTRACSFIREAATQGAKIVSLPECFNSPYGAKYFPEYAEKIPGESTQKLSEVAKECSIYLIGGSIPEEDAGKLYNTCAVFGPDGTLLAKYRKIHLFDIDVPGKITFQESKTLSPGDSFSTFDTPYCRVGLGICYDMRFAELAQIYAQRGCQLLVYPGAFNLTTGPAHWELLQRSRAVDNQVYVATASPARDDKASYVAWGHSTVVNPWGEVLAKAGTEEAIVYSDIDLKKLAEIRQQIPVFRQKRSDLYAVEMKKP

The mark [16] stands for this setting: HeLa, protein IDH1 (ISOCITRATE DEHYDROGENASE [NADP] CYTOPLASMIC.).
[17] abbreviates: HeLa, protein B2M (CDNA FLJ57067, HIGHLY SIMILAR TO BETA-2-MICROGLOBULIN).

Like-named read-outs stand apart in the source and are kept apart here.

T1 sequence (Q9H583 whole entry): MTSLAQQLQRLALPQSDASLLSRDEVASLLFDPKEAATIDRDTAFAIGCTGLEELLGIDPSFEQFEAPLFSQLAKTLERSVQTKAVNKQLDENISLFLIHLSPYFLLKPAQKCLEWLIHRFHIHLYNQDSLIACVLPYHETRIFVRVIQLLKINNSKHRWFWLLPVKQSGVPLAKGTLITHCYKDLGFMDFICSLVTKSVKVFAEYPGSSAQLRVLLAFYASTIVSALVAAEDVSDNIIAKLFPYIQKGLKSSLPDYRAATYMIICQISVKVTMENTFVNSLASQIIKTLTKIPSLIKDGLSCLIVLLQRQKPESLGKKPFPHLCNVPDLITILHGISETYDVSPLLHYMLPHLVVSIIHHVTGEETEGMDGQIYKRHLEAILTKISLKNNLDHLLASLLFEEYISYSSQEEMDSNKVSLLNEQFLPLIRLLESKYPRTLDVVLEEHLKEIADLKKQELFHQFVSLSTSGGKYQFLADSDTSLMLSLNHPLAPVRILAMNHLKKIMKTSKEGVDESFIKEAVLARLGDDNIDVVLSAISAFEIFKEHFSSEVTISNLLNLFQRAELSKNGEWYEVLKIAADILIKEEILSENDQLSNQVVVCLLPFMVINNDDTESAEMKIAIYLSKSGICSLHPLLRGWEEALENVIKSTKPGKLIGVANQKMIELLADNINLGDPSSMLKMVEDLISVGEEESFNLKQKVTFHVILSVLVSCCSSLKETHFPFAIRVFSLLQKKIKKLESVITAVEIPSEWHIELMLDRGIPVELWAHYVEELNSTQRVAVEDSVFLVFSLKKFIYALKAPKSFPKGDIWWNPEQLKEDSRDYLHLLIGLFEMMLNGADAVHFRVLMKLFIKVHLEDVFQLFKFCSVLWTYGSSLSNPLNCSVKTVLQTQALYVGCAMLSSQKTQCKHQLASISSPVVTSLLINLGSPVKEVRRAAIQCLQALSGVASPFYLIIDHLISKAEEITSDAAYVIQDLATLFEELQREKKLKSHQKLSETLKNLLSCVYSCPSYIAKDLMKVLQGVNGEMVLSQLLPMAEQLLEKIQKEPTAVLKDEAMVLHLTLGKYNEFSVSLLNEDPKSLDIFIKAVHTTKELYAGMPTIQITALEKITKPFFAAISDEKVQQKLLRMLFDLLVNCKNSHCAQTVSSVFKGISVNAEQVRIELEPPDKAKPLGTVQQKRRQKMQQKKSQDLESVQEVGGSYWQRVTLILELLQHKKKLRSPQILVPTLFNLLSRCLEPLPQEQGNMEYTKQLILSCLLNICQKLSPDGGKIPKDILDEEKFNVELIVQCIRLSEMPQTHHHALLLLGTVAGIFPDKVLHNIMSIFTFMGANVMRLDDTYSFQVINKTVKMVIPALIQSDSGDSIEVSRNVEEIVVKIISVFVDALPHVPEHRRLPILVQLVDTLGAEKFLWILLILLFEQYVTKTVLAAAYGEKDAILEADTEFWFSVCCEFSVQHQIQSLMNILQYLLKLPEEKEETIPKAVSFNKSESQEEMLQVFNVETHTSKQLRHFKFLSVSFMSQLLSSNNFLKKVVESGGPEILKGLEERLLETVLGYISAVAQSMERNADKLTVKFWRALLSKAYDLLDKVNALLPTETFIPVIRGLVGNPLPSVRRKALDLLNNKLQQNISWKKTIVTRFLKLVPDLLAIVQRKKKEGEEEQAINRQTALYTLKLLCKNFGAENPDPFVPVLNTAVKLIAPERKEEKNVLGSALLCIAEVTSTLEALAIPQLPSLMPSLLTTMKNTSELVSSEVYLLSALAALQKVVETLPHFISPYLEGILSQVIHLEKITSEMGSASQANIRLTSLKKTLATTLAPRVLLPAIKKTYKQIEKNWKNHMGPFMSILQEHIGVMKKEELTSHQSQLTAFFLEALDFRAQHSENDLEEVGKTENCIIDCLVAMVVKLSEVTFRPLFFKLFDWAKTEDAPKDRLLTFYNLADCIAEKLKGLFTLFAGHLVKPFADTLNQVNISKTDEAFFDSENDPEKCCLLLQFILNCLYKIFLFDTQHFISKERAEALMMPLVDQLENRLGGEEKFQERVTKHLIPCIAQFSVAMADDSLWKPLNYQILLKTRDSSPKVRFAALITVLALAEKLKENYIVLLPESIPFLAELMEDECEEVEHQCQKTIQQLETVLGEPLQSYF
T7 sequence (P61769 21-119): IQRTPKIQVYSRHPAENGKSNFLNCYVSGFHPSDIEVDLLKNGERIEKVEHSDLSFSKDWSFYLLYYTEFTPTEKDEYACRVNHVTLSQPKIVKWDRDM
T10 sequence (O75874 whole entry): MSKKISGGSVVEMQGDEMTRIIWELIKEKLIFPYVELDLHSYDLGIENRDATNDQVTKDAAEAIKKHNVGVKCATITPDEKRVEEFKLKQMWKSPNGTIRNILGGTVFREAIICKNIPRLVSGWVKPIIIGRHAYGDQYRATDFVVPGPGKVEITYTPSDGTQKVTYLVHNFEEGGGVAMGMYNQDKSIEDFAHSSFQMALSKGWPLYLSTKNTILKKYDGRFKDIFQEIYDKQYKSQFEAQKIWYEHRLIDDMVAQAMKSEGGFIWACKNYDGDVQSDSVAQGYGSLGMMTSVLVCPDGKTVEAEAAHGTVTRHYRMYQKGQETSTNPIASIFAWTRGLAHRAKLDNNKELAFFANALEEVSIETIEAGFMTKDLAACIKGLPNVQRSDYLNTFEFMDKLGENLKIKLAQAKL

`Nc1nc2cccc(-c3ccccc3)c2n1Cc1ccc(Cl)c(Cl)c1` [compound 3]: the “fold changes relative to vehicle control” value in assay [1] (HeLa, protein HEATR1) turned out to be 1.12; in assay [2] (captured protein PTPLAD1, HeLa), 2.73; in assay [3] (HeLa, protein ALDH3A2), 1.05; in assay [4] (protein TFRC, HeLa) it was 0.99; in assay [5] (protein HSPD1, HeLa) it was 1.03; in [6] (captured protein IFITM3, HeLa), 0.9. Moreover, the “fold changes relative to vehicle control” value in assay [7] (protein B2M, HeLa) amounted to 1.07; in [8] (HeLa, protein UQCRC1) it was 0.96; in assay [9] (protein MSN, HeLa), 0.77; in [10] (setting [16]) it was 0.95 fold; in [11] (HeLa, protein P4HA1) it was 0.98; in assay [12] (protein EEF1D, HeLa) it was 1.1. The “fold changes relative to vehicle control” value in assay [13] (protein RABGGTB, HeLa) came to 1.06; in [14] (captured protein mTOR, HeLa), 1.01; in assay [15] (protein NIT2, HeLa), 0.84.

As to `NCCOCCOCC(=O)Nc1nc2ncc(CNc3ccc(C(=O)NC(CCC(=O)O)C(=O)O)cc3)nc2c(=O)[nH]1` (stereo not drawn) [compound 6], the “fold changes relative to vehicle control” value in assay [1] (HeLa, protein HEATR1) was determined as 1.09; in [2] (HeLa, protein PTPLAD1) it was 1.04; in assay [3] (HeLa, protein ALDH3A2), 0.92; in [4] (HeLa, protein TFRC) it was 1.09; in assay [5] (HeLa, protein HSPD1) it was 1.21; in assay [6] (HeLa, protein IFITM3), 1.14. The “fold changes relative to vehicle control” value in assay [7] (setting [17]) was determined as 1.37; in assay [8] (HeLa, captured protein UQCRC1) it was 0.95; in [9] (HeLa, protein MSN), 1.08; in assay [10] (HeLa, captured protein IDH1) it was 1.29; in assay [11] (HeLa, captured protein P4HA1) it was 1; in [12] (protein EEF1D, HeLa), 1.09. Further, the “fold changes relative to vehicle control” value in assay [13] (HeLa, captured protein RABGGTB) was 0.91; in [14] (HeLa, captured protein mTOR) it was 1.15; in assay [15] (HeLa, captured protein NIT2), 0.84.

With `Nc1nc2[nH]cc(CCc3ccc(C(=O)N[C@@H](CCC(=O)O)C(=O)O)cc3)c2c(=O)[nH]1` [PTX, pemetrexed], the “fold changes relative to vehicle control” value in [1] was found to be 0.98; in assay [2], 1; in assay [3], 0.93; in assay [4], 1.01; in assay [5], 1.14; in assay [6], 1.32. Besides, the “fold changes relative to vehicle control” value in assay [7] came to 1.51; in [8], 0.88; in [9], 0.97; in assay [10] it was 1.18; in assay [11], 0.88; in [12] it was 1.01. The “fold changes relative to vehicle control” value in assay [13] came to 0.97; in assay [14] it was 0.99; in assay [15] it was 0.89.

As to `Nc1nc2c(c(=O)[nH]1)N(C=O)C(CNc1ccc(C(=O)N[C@@H](CCC(=O)O)C(=O)O)cc1)CN2` (stereo partly drawn) [LEU, leucovorin], the “fold changes relative to vehicle control” value in [1] (HeLa, protein HEATR1) was determined as 0.94; in assay [2] (HeLa, protein PTPLAD1) it was 0.97; in assay [3] (HeLa, protein ALDH3A2), 0.89; in assay [4] (HeLa, protein TFRC), 0.94; in [5] (HeLa, protein HSPD1), 1.12; in assay [6] (HeLa, protein IFITM3) it was 1.21. Besides, the “fold changes relative to vehicle control” value worked out at 1.24 in assay [7] (setting [17]); 0.99 in assay [8] (HeLa, captured protein UQCRC1); 0.93 in [9] (HeLa, protein MSN); 1.14 in assay [10] (HeLa, captured protein IDH1); 1.02 in assay [11] (HeLa, captured protein P4HA1); 0.99 in assay [12] (protein EEF1D, HeLa). Moreover, the “fold changes relative to vehicle control” value in assay [13] (HeLa, captured protein RABGGTB) was 1.01; in [14] (HeLa, captured protein mTOR), 1.05; in [15] (HeLa, captured protein NIT2), 1.04.

In the case of `CCCCCCOc1ccc(Cc2cnc(N)nc2N)cc1` [compound 1], the “fold changes relative to vehicle control” value is recorded as 1.14 in assay [1] (HeLa, protein HEATR1); 1.06 in assay [2] (captured protein PTPLAD1, HeLa); 0.94 in assay [3] (HeLa, protein ALDH3A2); 1.26 in assay [4] (protein TFRC, HeLa); 1.32 in [5] (protein HSPD1, HeLa); 1.07 in assay [6] (captured protein IFITM3, HeLa). Besides, the “fold changes relative to vehicle control” value in [7] (protein B2M, HeLa) was determined as 1.14; in [8] (HeLa, protein UQCRC1) it was 1.09; in assay [9] (protein MSN, HeLa) it was 1.07; in assay [10] (setting [16]) it was 1.52 fold; in assay [11] (HeLa, protein P4HA1) it was 0.9; in assay [12] (protein EEF1D, HeLa) it was 1.26. In addition, the “fold changes relative to vehicle control” value was found to be 1.07 in assay [13] (protein RABGGTB, HeLa); 0.89 in assay [14] (captured protein mTOR, HeLa); 0.99 in assay [15] (protein NIT2, HeLa).

`NCCCNc1ccc(C(=O)NC(CCC(=O)O)C(=O)O)cc1` (stereo not drawn) [compound 7]: the “fold changes relative to vehicle control” value in [1] (HeLa, protein HEATR1) turned out to be 1.04; in assay [2] (HeLa, protein PTPLAD1), 1.05; in assay [3] (HeLa, protein ALDH3A2), 0.89; in assay [4] (HeLa, protein TFRC) it was 0.87; in [5] (HeLa, protein HSPD1), 1; in assay [6] (HeLa, protein IFITM3), 1.3. Moreover, the “fold changes relative to vehicle control” value in [7] (setting [17]) was 1.31; in assay [8] (HeLa, captured protein UQCRC1), 0.99; in assay [9] (HeLa, protein MSN) it was 0.81; in [10] (HeLa, captured protein IDH1) it was 0.96; in assay [11] (HeLa, captured protein P4HA1), 1.04; in assay [12] (protein EEF1D, HeLa), 0.93. In addition, the “fold changes relative to vehicle control” value came out at 1.03 in [13] (HeLa, captured protein RABGGTB); 1.2 in assay [14] (HeLa, captured protein mTOR); 0.96 in [15] (HeLa, captured protein NIT2).
